The source of these data is patent publication US5563142A, “Diaromatic substituted compounds as anti-HIV-1 agents” (The Upjohn Company, priority 1994, dated 1996).

Test [1] relates to HIV-1 (MT-2 cells infected with HIV-1). Put plainly: Inhibition of HIV-induced syncytia formation in MT-2 cells. The class given is cell-based. The note with it: for IC50: Human immunodeficiency virus 1, MT2, MT-2 cells infected with HIV-1, read-out: INHIBITION OF SYNCYTIA FORMATION ED50. The text has this: This test is described in Quantitative Infectivity Assay for HIV-1 and -2., Nature 332: 469-470, 1988 as well as in AIDS RESEARCH AND HUMAN RETROVIRUSES, Vol. 4, No. 6, pages 449-455 (1988), Mary Ann Liebent, Inc., Publishers; in an article entitled "Nucleotide Dimers Suppress HIV Expression In VITRO". The results (IC50 means the concentration, in μM of drug, required to inhibit syncytia formation to the extent of 50%) of various assay(s) are combined and reported as % inhibition and IC50 (calculated).
ability of various compounds used to inhibit HIVinduced syncytia formatio
in a tissue culture assay using MT2 cells infected with HIV1. This test i
described by Nara et al., Quantitative infectivity assay for HIV1 and 2,
Nature 332, 469-470 (1988), as well as in AIDS RESEARCH AND HUMAN
RETROVIRUSES, vol. 4, No. 6, pages 449-455 (1988), Mary Ann Liebent, Inc.
Publishers, and in an article by Mariano Busso, et al., entitled
"Nucleotide Dimers Suppress HIV Expression In Vitro". The results
(ED50 means the concentration, in μM of drug, required to inhibit
syncytia formation to the extent of 50%) of various assay are combined an
reported in Table I. In comparison, the known commercial compound, AZT,
percent reductions in syncytia formation at concentrations of
approximately 1 μM and 0.5 μM, respectively.

The target of test [2] is T1, viral reverse transcriptase (Human immunodeficiency virus type 1 group M subtype B, UniProt P04585).
T1 construct: Viral reverse transcriptase is found in extracts from bacterial clones; made in house; host or cells: Escherichia coli (extracts of bacterial clones, by the procedure of Larder et al., EMBO J. 6:3133-3137, 1987)
The test is described as follows: Viral reverse transcriptase inhibition, cell free assay. The note with it: read-out: RT % INHIBITION (100 μM), 100 μM; poly rC or poly rG template. Format: biochemical, human immunodeficiency virus (HIV-1). Put shortly:
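E. coli-expressed HIV-1 RT extract was incubated with inhibitor, 10 μM [35S]-dNTP, poly rC/rG template and oligo dG/dT primer in Tris pH 8.3 with Mg2+ at 37 °C (30 min; 15 min in an alternative version). DNA incorporation was counted on filters and reported as % inhibition (at 100 μM in one version) and IC50.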

In test [3] the test system is HIV in primary human peripheral blood lymphocytes. Put plainly: Primary PBL assay: inhibition of viral replication (p24 & RNA). The class given is cell-based. The note with it: Human immunodeficiency virus 1, Lymphocyte, primary human lymphocytes infected with HIV, days three and four, read-out: PBL INHIBITION OF VIRAL REPLICATION (p24 & RNA) ED50. Put shortly: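 Mitogen-stimulated human PBLs infected with standardized HIV, cultured with drug 4 days at one tenth of the antiproliferative half-maximal concentration. Secreted p24 by capture-ELISA and total HIV RNA by hybridization on days 3 and 4, with viability in parallel; ED50 is the concentration giving 50% reduction in p24.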

Structures can show the parent of a compound that is named as a salt.

A word on the inhibition: it is the relative decrease from the control value, in per cent. As to `CCNc1cccnc1N1CCN(C(=O)c2cc3c(C)c(OC)c(C)c(C)c3[nH]2)CC1` [Example 42, 1-[5-Methoxy-4,6,7-trimethylindolyl-2-carbonyl]-4-[3-(ethylamino)-2-pyridinyl]piperazine], the IC50 in test [1] was determined as 2000 nM. In test [2], the inhibition at 100 µM stood at 63%. Also, the EC50 in test [3] turned out to be 10000 nM.

Regarding `COc1ccc2[nH]c(C(=O)N3CCN(c4ncccc4NC(C)(C)C)CC3)cc2c1` [Example 45, 1-[5-Methoxyindolyl-2-carbonyl]-4-[3-(1,1-dimethylethylamino)-2-pyridinyl]piperazine hydrochloride salt], in test [1], the IC50 is 500 nM. The inhibition at 100 µM in test [2] was in the range of 83 to 91%. Also, in test [3], the EC50 is 10 to 100 nM.

For `CCNc1cccnc1N1CCN(C(=O)c2cc3cc(OC)c(OC)cc3[nH]2)CC1` [Example 133], the IC50 in test [1] is 1000 nM. In test [2], the inhibition at 100 µM is 76 to 84%. Besides, in test [3], the EC50 was found to be 10 nM.

With `CCNc1cccnc1N1CCN(C(=O)c2cc3ccccc3[nH]2)CC1` [Example 11, 1-[Indolyl-2-carbonyl]-4-[3-(ethylamino)-2-pyridinyl]piperazine], the IC50 in test [1] was in the range of 300 to 3000 nM. Further, the inhibition at 100 µM in test [2] lay in the range of 95 to 98%. In addition, the EC50 in test [3] is 10 to 100 nM.

Turning to `CC(C)Nc1cccnc1N1CCN(C(=O)c2cc3cc(N=CN(C)C)ccc3[nH]2)CC1` [Example 85, 1-[(5N-(N',N'-Dimethylaminomethylene)aminoindolyl)carbonyl]-4-(3(1-methylethylamino)-2-pyridinyl)piperazine, methane sulfonate], the IC50 in test [1] was less than 200 nM. Also, the inhibition at 100 µM in test [2] lay in the range of 93 to 96%. The EC50 in test [3] fell in the range of 1 to 10 nM.

On to `CCNc1cccnc1N1CCN(C(=O)c2cc3cc(OC)ccc3[nH]2)CC1` [Example 16A, 1-[5-Methoxyindolyl-2-carbonyl]-4-[3-(ethylamino)-2-pyridinyl]-piperazine, hydrochloride], for which the IC50 in test [1] was less than 200 nM. In test [3], the EC50 was determined as 1 nM.

On to `Cc1cn([C@H]2C[C@H](N=[N+]=[N-])[C@@H](CO)O2)c(=O)[nH]c1=O` [AZT, 3'-azido-3'-deoxy-thymidine, reference compound], for which the EC50 in test [1] (Human immunodeficiency virus 1, MT2, read-out: concentration giving 50 percent reduction in syncytia formation) is approximately 500 nM. Moreover, the IC100 in test [1] (Human immunodeficiency virus 1, MT2, read-out: concentration giving 100 percent reduction in syncytia formation) is approximately 1 µM.

For the molecule `CCCNc1cccnc1N1CCN(Cc2cc(C)c(OC)c(C)c2)CC1` [Example 5, 1-[4-Methoxy-3,5-dimethylbenzyl]-4-[3-(propylamino)-2-pyridinyl]-piperazine], in test [1], the IC50 was determined as 2000 nM. For the same molecule, the inhibition at 100 µM in test [2] was 39 to 42%.

As to `C=CCNc1cccnc1N1CCN(Cc2cc(C)c(OC)c(C)c2)CC1` [Example 116, 1-[4-Methoxy-3,4-dimethylbenzyl]-4-(3-(2-propenylamino)-2-pyridinyl]piperazine, hydrochloride], the inhibition at 100 µM in test [2] fell in the range of 45 to 52%. Also, the EC50 in test [3] is less than 10000 nM.

On to `COc1cc2[nH]c(C(=O)N3CCN(c4ncccc4NC(C)C)CC3)cc2cc1F` [Example 91, 1-[5-Fluoro-6-methoxyindolyl-2-carbonyl]-4-[3-(1-methylethylamino)-2-pyridinyl]piperazine], for which the inhibition at 100 µM in test [2] was 85 to 91%. Further, the EC50 in test [3] was 100 nM.

Turning to `CCOC(=O)COc1ccc2[nH]c(C(=O)N3CCN(c4ncccc4NC(C)C)CC3)cc2c1` [Example 60, 1-[5-(Ethoxycarbonylmethoxy)indolyl-2-carbonyl]-4-[3-(1-methylethylamino)-2-pyridinyl]piperazine], the inhibition at 100 µM in test [2] lay within 89 to 92%. In addition, in test [3], the EC50 was 100 to 1000 nM.

As to `CNc1cccnc1N1CCN(C(=O)c2cc3ccccc3[nH]2)CC1` [Example 65, 1-(Indolyl-2-carbonyl)-4-[3-(methylamino)-2-pyridinyl]piperazine], the inhibition at 100 µM in test [2] lay within 81 to 93%. In addition, in test [3], the EC50 was not above 1 nM.

As to `CC(C)Nc1cccnc1N1CCN(C(=O)c2cc3cc(N)ccc3[nH]2)CC1` [Example 101, 1-[5-Aminoindolyl-2-carbonyl]-4-[3-(1-methylethylamino)-2-pyridinyl]-piperazine], in test [2], the inhibition at 100 µM lay within 93 to 96%. The EC50 in test [3] came out at 10 nM.
